In ChEMBL document CHEMBL1201862, “PubChem BioAssay data set” (2004):
“And” between values parts separate entries of the source, which are not always exact repeats. Equal values may be shown once.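 Where inhibition never reached the appropriate level, the endpoint shown equals the highest concentration tested. Otherwise, values were interpolated linearly from a five-concentration, 48-hour dose response in 96-well plates. GI50 is the concentration that inhibits growth by half.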 The source made the active and inactive calls. Cut-off read from the data, not from the text of the source: active = GI50 up to about 1.1 µM and inactive = higher.

Key:
Assay in all cases: NCI anticancer screen, dose series, 48 h
[1] = test system: A549
[2] = test system: BT-549
[3] = test system: CCRF-CEM
[4] = test system: HCC 2998
[5] = test system: MCF7
[6] = test system: NCI-H226
[7] = test system: NCI-H460
[8] = test system: NCI/ADR-RES
[9] = test system: OVCAR-4
[10] = test system: OVCAR-5
[11] = test system: SF-295
[12] = test system: SK-MEL-5
[13] = test system: SN12C
[14] = test system: SNB-75
[15] = test system: U-251
[16] = test system: UACC-257
[17] = test system: UO-31
[18] = test system: Hs-578T
[19] = test system: Malme-3M

COC(=O)C1(C(=O)OC)N=C(C)OC1C(C)C (centres undefined)
GI50 [1]: > 100 µM (inactive) | GI50 [2]: > 100 µM (inactive) | GI50 [3]: > 100 µM (inactive) | GI50 [4]: > 100 µM (inactive) | GI50 [5]: > 100 µM (inactive) | GI50 [6]: > 100 µM (inactive) | GI50 [7]: > 100 µM (inactive) | GI50 [8]: > 100 µM (inactive) | GI50 [9]: > 100 µM (inactive) | GI50 [10]: > 100 µM (inactive) | GI50 [11]: > 100 µM (inactive) | GI50 [12]: > 100 µM (inactive) | GI50 [13]: > 100 µM (inactive) | GI50 [14]: > 100 µM (inactive) | GI50 [15]: > 100 µM (inactive) | GI50 [16]: > 100 µM (inactive) | GI50 [17]: > 100 µM (inactive)

CO[C@@H]1C[C@H]2[C@@H]3CC[C@H]([C@@H](C)CO)[C@@]3(C)CC[C@@H]2[C@@]2(C)CC[C@H]3C[C@]312
GI50 [1]: 36 µM (inactive) | GI50 [3]: 40.2 µM (inactive) | GI50 [4]: 33.1 µM (inactive) | GI50 [18]: 27.2 µM (inactive) | GI50 [5]: 16.2 µM (inactive) | GI50 [19]: 19.5 µM (inactive) | GI50 [6]: 24.4 µM (inactive) | GI50 [7]: 20.9 µM (inactive) | GI50 [8]: 24.9 µM (inactive) | GI50 [9]: 33.2 µM (inactive) | GI50 [10]: > 100 µM (inactive) | GI50 [11]: 30.5 µM (inactive) | GI50 [12]: 16.7 µM (inactive) | GI50 [13]: 33 µM (inactive) | GI50 [14]: 74.3 µM (inactive) | GI50 [15]: 14.6 µM (inactive) | GI50 [16]: 34 µM (inactive) | GI50 [17]: 39.8 µM (inactive)

O=C(CP(c1ccccc1)c1ccccc1)c1cccc(C(=O)CP(c2ccccc2)c2ccccc2)c1
GI50 [1]: 15.6 µM (inactive) | GI50 [3]: 6.76 µM (inactive) | GI50 [4]: 74.1 µM (inactive) | GI50 [18]: 62.7 µM (inactive) | GI50 [5]: 17.9 µM (inactive) | GI50 [6]: 66.4 µM (inactive) | GI50 [7]: 19.7 µM (inactive) | GI50 [8]: > 100 µM (inactive) | GI50 [9]: 26.1 µM (inactive) | GI50 [10]: > 100 µM (inactive) | GI50 [11]: 26.1 µM (inactive) | GI50 [12]: 23.4 µM (inactive) | GI50 [13]: 56.8 µM (inactive) | GI50 [14]: 55.6 µM (inactive) | GI50 [15]: 58.5 µM (inactive) | GI50 [16]: 32.1 µM (inactive) | GI50 [17]: 12.5 µM (inactive)

COc1ccc(-c2c(C#N)c(N)n(C3OC(CO)C(O)C(O)C3O)c(=S)c2C#N)cc1 (centres undefined)
GI50 [1]: > 100 µM (inactive) | GI50 [2]: > 100 µM (inactive) and 76.9 µM (inactive) | GI50 [3]: > 100 µM (inactive) | GI50 [4]: > 100 µM (inactive) | GI50 [18]: 21.7 µM (inactive) | GI50 [19]: > 100 µM (inactive) | GI50 [6]: > 100 µM (inactive) | GI50 [7]: 97.1 µM (inactive) | GI50 [9]: > 100 µM (inactive) and 67.9 µM (inactive) | GI50 [10]: > 100 µM (inactive) | GI50 [12]: > 100 µM (inactive) and 74 µM (inactive) | GI50 [13]: > 100 µM (inactive) | GI50 [14]: > 100 µM (inactive) | GI50 [15]: > 100 µM (inactive) | GI50 [16]: > 100 µM (inactive) | GI50 [17]: 82.2 µM (inactive)

CC1=Nc2c(ccc3c2C(=O)c2ccccc2C3=O)NC(c2cccc3c2CCC3)C1 (centres undefined)
GI50 [1]: > 100 µM (inactive) | GI50 [3]: 0.612 µM (active) | GI50 [4]: > 100 µM (inactive) | GI50 [19]: > 100 µM (inactive) | GI50 [6]: > 66.2 µM (inactive) | GI50 [7]: 47.8 µM (inactive) | GI50 [9]: > 100 µM (inactive) | GI50 [10]: > 100 µM (inactive) | GI50 [11]: > 100 µM (inactive) | GI50 [12]: > 100 µM (inactive) | GI50 [13]: > 100 µM (inactive) | GI50 [14]: > 100 µM (inactive) | GI50 [15]: > 100 µM (inactive) | GI50 [16]: > 100 µM (inactive) | GI50 [17]: 4.72 µM (inactive)

Cc1c(O)c(OC2OC(CO)C(O)C(O)C2O)cc2c1CC[C@@H]1C2(C)C(=O)C[C@]2(C)[C@@H]([C@@](C)(O)C(O)CCC(C)(C)O)[C@H](O)C[C@@]12C (some centres undefined)
GI50 [1]: > 100 µM (inactive) | GI50 [2]: > 100 µM (inactive) | GI50 [3]: > 100 µM (inactive) | GI50 [4]: > 100 µM (inactive) | GI50 [5]: > 100 µM (inactive) | GI50 [19]: > 100 µM (inactive) | GI50 [6]: > 100 µM (inactive) | GI50 [7]: > 100 µM (inactive) | GI50 [8]: > 100 µM (inactive) | GI50 [9]: > 100 µM (inactive) | GI50 [10]: > 100 µM (inactive) | GI50 [11]: > 100 µM (inactive) | GI50 [12]: > 100 µM (inactive) | GI50 [13]: > 100 µM (inactive) | GI50 [14]: > 100 µM (inactive) | GI50 [15]: > 100 µM (inactive) | GI50 [16]: > 100 µM (inactive) | GI50 [17]: > 100 µM (inactive)

CC(=O)OC(C)(C)CCC(=O)[C@](C)(O)[C@H]1[C@H](O)C[C@@]2(C)[C@@H]3CCc4c(cc(OC5OC(CO)C(O)C(O)C5O)c(O)c4C)C3(C)C(=O)C[C@]12C (some centres undefined)
GI50 [1]: > 100 µM (inactive) | GI50 [2]: > 100 µM (inactive) | GI50 [3]: > 100 µM (inactive) | GI50 [4]: > 100 µM (inactive) | GI50 [5]: > 100 µM (inactive) | GI50 [19]: > 100 µM (inactive) | GI50 [6]: > 100 µM (inactive) | GI50 [7]: > 100 µM (inactive) | GI50 [8]: > 100 µM (inactive) | GI50 [9]: > 100 µM (inactive) | GI50 [10]: > 100 µM (inactive) | GI50 [11]: > 100 µM (inactive) | GI50 [12]: > 100 µM (inactive) | GI50 [13]: > 100 µM (inactive) | GI50 [14]: > 100 µM (inactive) | GI50 [15]: > 100 µM (inactive) | GI50 [16]: > 100 µM (inactive) | GI50 [17]: > 100 µM (inactive)
